This passage reports IC50 results from patent US20230131334A1, “COMPANION DIAGNOSTIC BIOMARKERS OF EGFR INHIBITOR” (SYNTEKABIO, INC., priority 2020, published 2023).

The subject of the experiment is A549 cell line. Put plainly: WST-1 assay of drug responsiveness to pelitinib in A549 with LEPRE1 overexpression or inhibited expression. Format: cell-based. The following applies: Homo sapiens. As to the method:
The expression level of LEPRE1 was identified by Western blot, and a test (WST-1 assay) of drug responsiveness to pelitinib was carried out. […] It was confirmed that LEPRE1 overexpression had the effect of increasing drug sensitivity to pelitinib. […] It was confirmed that the inhibited LEPRE1 expression had the effect of reducing drug sensitivity to pelitinib.
The loss-of-function effect whereby drug sensitivity to pelitinib decreases was confirmed when LEPRE1 expression was inhibited.
(Tetrazolium assays rely on reduction of a dye to a coloured formazan, in cell work by metabolically active cells.)

In the case of `CCOc1cc2ncc(C#N)c(Nc3ccc(F)c(Cl)c3)c2cc1NC(=O)/C=C/CN(C)C` [pelitinib, Pelitinib], the IC50 (as a rule, the concentration that inhibits the measured activity by half) was 1030 ± 40.6 nM (A549, A549 overexpressing LEPRE1/pcDNA3.1, then treated with pelitinib); 1670 ± 520 nM (A549, A549 overexpressing pcDNA3.1 (empty vector), then treated with pelitinib); 4010 ± 1010 nM (A549, A549 transfected with LEPRE1 siRNA (si2293), then treated with pelitinib); 1730 ± 187 nM (A549, A549 transfected with negative control, then treated with pelitinib).
